Measured values published in ChEMBL document CHEMBL5131389, “PSMA-targeted small-molecule docetaxel conjugate: Synthesis and preclinical evaluation” (Eur J Med Chem, 2022).
Converted amounts (≈) assume the structure as drawn. The source made the active and inactive calls. The rule behind the calls is not given here.

Tests used:
[1] = Chronic toxicity in rat assessed as hair loss at 22.5 mg/kg, iv administered as pluronic F127 formulation at 4 intervals for 21 days and observed 3 weeks post last injection; assay type: organism-based; details: in vivo, 2544 h, time 106 day
[2] = Chronic toxicity in rat assessed as increase in relative spleen mass at 18.75 mg/kg, iv administered as pluronic F127 formulation at 4 intervals for 21 days and observed 3 weeks post last injection relative to control; assay type: organism-based; details: in vivo, 2544 h, time 106 day
PC-3 = assay: Cytotoxicity against human PC-3 cells assessed as reduction in cell viability measured after 72 hrs by MTT assay; assay type: functional
[3] = C0 in Albino Wistar rat at 15 mg/kg, iv administered as pluronic F127 formulation measured upto 72 hrs by high-performance liquid chromatography tandem mass spectrometric analysis; assay type: ADME, organism-based; details: in vivo
[4] = Half-life in Albino Wistar rat at 15 mg/kg, iv administered as pluronic F127 formulation measured upto 72 hrs by high-performance liquid chromatography tandem mass spectrometric analysis; assay type: ADME, organism-based; details: in vivo
CWR22R [5] = assay: Antitumor activity against human 22Rv1 cells xenografted in Balb/c nude mouse assessed as tumor growth inhibition at 30 mg/kg, ip administered daily for 5 days and measured at day 34 relative to control; assay type: functional; design: scale not given: the % may be the effect or the level left; details: time 34 day
[6] = Chronic toxicity in rat assessed as increase in relative mass of pancreas administered intravenously as pluronic F127 formulation at 4 intervals for 21 days and observed 3 weeks post last injection relative to control; assay type: tissue-based; details: in vivo, iv, 2544 h, time 106 day
[7] = Chronic toxicity in Soviet Chinchilla rabbit assessed as increase in relative pancreas mass at 8.14 to 12.21 mg/kg, iv administered as pluronic F127 formulation at 4 intervals for 21 days and observed 3 weeks post last injection; assay type: organism-based, Oryctolagus cuniculus; details: in vivo, 2544 h, dose 8.14-12.21 mg/kg, time 106 day
[8] = Aqueous solubility of compound; assay type: physicochemical
[9] = Acute toxicity in Wistar rat assessed as maximum tolerated dose administered intravenously as pluronic F127 formulation and measured for 14 days; details: in vivo, route iv, time 14 day
CWR22R [10] = assay: Effect on cell stiffness in human 22Rv1 cells assessed as increase in young's modulus at 2.7 nM measured after 1 hr by topography based scanning ion-conductance microscopic analysis; assay type: functional
[11] = AUC (0 to t) in Albino Wistar rat at 15 mg/kg, iv administered as pluronic F127 formulation measured upto 72 hrs by high-performance liquid chromatography tandem mass spectrometric analysis; assay type: ADME, organism-based; design: dose 15 mg/kg, time < 72 hrs, route iv; details: in vivo
[12] = Chronic toxicity in rat assessed as increase in relative mass of stomach administered intravenously as pluronic F127 formulation at 4 intervals for 21 days and observed 3 weeks post last injection relative to control; assay type: tissue-based; details: in vivo, iv, 2544 h, time 106 day
[13] = Acute toxicity in Wistar rat assessed as hypertrophied adrenal gland at 15 to 279 mg/kg, iv administered as pluronic F127 formulation and measured for 14 days; assay type: organism-based; details: in vivo, 336 h, dose 15-279 mg/kg, time 14 day
[14] = Subchronic toxicity in Wistar rat assessed as decrease in body weight at 58 mg/kg, iv administered as pluronic F127 formulation daily for 28 days; assay type: organism-based; details: in vivo, 672 h, time 28 day
[15] = Acute toxicity in ICR mouse assessed as violation of motor activity in hind limb administered intravenously as pluronic F127 formulation and measured for 14 days; details: in vivo, iv, 336 h, dose 183-960 mg/kg, time 14 day
[16] = Volume of distribution in Soviet Chinchilla rabbit at 8.1 mg/kg, iv administered as pluronic F127 formulation measured upto 72 hrs by high-performance liquid chromatography tandem mass spectrometric analysis; assay type: ADME, organism-based, Oryctolagus cuniculus; details: in vivo
[17] = Chronic toxicity in rat assessed as increase in relative lung mass administered intravenously as pluronic F127 formulation for 4 intervals of 21 days and observed 3 weeks post last injection relative to control; details: in vivo, iv, 2544 h, time 106 day
[18] = Acute toxicity in Wistar rat assessed as animal death at 15 to 279 mg/kg, iv administered for 14 days as pluronic F127 formulation and measured after 3 days; assay type: organism-based; details: in vivo, 408 h, dose 15-279 mg/kg, time 17 day
[19] = C0 in Soviet Chinchilla rabbit at 8.1 mg/kg, iv administered as pluronic F127 formulation measured upto 72 hrs by high-performance liquid chromatography tandem mass spectrometric analysis; assay type: ADME, organism-based, Oryctolagus cuniculus; details: in vivo
[20] = Ratio of AUC (t to infinity) to AUC (0 to infinity) in Albino Wistar rat at 15 mg/kg, iv administered as pluronic F127 formulation measured upto 72 hrs by high-performance liquid chromatography tandem mass spectrometric analysis; assay type: ADME, organism-based; details: in vivo
[21] = Chronic toxicity in rat assessed as decrease in relative mass of testes administered intravenously as pluronic F127 formulation at 4 intervals for 21 days and observed 3 weeks post last injection relative to control; details: in vivo, iv, 2544 h, time 106 day
[22] = Stability of the compound in pH 5.5 buffer measured upto 96 hrs by LC-MS based mass spectrometric analysis; assay type: physicochemical; details: pH 5.5, 96 h
[23] = Acute toxicity in ICR mouse assessed as coprostasis at 183 to 960 mg/kg, iv administered as pluronic F127 formulation and measured for 14 days; assay type: organism-based; details: in vivo, 336 h, dose 183-960 mg/kg, time 14 day
[24] = Acute toxicity in ICR mouse assessed as animal death at 183 to 960 mg/kg, iv administered for 14 days as pluronic F127 formulation and measured after 5 days; assay type: organism-based; details: in vivo, 456 h, dose 183-960 mg/kg, time 19 day
[25] = Chronic toxicity in rat assessed as change in alkaline phosphatase level at 18.75 to 22.5 mg/kg, iv administered as pluronic F127 formulation at 4 intervals for 21 days and observed 3 weeks post last injection; assay type: organism-based; details: in vivo, 2544 h, dose 18.75-22.5 mg/kg, time 106 day
[26] = Chronic toxicity in rat assessed as increase in relative brain mass administered intravenously as pluronic F127 formulation at 4 intervals for 21 days and observed 3 weeks post last injection relative to control; assay type: tissue-based; details: in vivo, iv, 2544 h, time 106 day
[27] = Chronic toxicity in rat assessed as change in relative density of urine at 22.5 mg/kg, iv administered as pluronic F127 formulation at 4 intervals for 21 days and observed 3 weeks post last injection; assay type: organism-based; details: in vivo, 2544 h, time 106 day
[28] = Chronic toxicity in Soviet Chinchilla rabbit assessed as external signs of intoxication administered intravenously as pluronic F127 formulation at 4 intervals for 21 days and observed 3 weeks post last injection; design: species or system Oryctolagus cuniculus; details: in vivo, iv, 2544 h, time 106 day
[29] = Chronic toxicity in Soviet Chinchilla rabbit assessed as urine alkalization at 10.17 to 12.21 mg/kg, iv administered as pluronic F127 formulation at 4 intervals for 21 days and observed 3 weeks post last injection; assay type: organism-based, Oryctolagus cuniculus; details: in vivo, 2544 h, dose 10.17-12.21 mg/kg, time 106 day
[30] = Chronic toxicity in Soviet Chinchilla rabbit assessed as increase in body weight at 12.21 mg/kg, iv administered as pluronic F127 formulation at 4 intervals for 21 days and observed 3 weeks post last injection relative to control; assay type: organism-based, Oryctolagus cuniculus; details: in vivo, 2544 h, time 106 day
[31] = Chronic toxicity in rat assessed as reduction in number of crossed squares at 22.5 mg/kg, iv administered as pluronic F127 formulation at 4 intervals for 21 days and observed 3 weeks post last injection; assay type: organism-based; details: in vivo, 2544 h, time 106 day

Structure (SMILES): CC(=O)O[C@@]12CO[C@@H]1C[C@H](O)[C@@]1(C)C(=O)[C@H](O)C3=C(C)[C@@H](OC(=O)[C@H](OC(=O)CCCc4cn(CCCNC(=O)[C@H](Cc5ccc(O)cc5)NC(=O)[C@H](Cc5ccccc5)NC(=O)CCC(=O)NCCCCCC(=O)N(CCCC[C@H](NC(=O)N[C@@H](CCC(=O)O)C(=O)O)C(=O)O)Cc5cccc(Cl)c5)nn4)[C@@H](NC(=O)OC(C)(C)C)c4ccccc4)C[C@@](O)([C@@H](OC(=O)c4ccccc4)[C@H]21)C3(C)C
- Activity [1]: Toxic
- Activity [2]: Toxic
- CC50 (PC-3): 2.8 nM
- C0 at 72 h [3]: 153 µg/mL
- half-life [4]: 59.8 min
- Activity (CWR22R [5]): 80%
- Activity [6]: Toxic
- Activity [7]: Toxic
- solubility [8]: 130 µg/mL (≈ 66.6 µM)
- MTD at 336 h [9]: 15 mg/kg
- Activity (CWR22R [10]): Active
- AUC(0-t) at 72 h [11]: 28000 ng·h/mL
- Activity [12]: Toxic
- Activity [13]: Toxic
- Activity [14]: Toxic
- Activity [15]: Toxic
- Vd [16]: 0.332 L/kg
- Activity [17]: Toxic
- Activity [18]: Toxic
- C0 at 72 h [19]: 79 µg/mL
- Ratio AUC [20]: 11%
- Activity [21]: Toxic
- Stability [22]: Unstable
- Activity [23]: Toxic
- Activity [24]: Toxic
- Activity [25]: Non-Toxic
- Activity [26]: Toxic
- Activity [27]: Toxic
- Activity [28]: Non-Toxic
- Activity [29]: Toxic
- Activity [30]: Toxic
- Activity [31]: Toxic
